Assay results as given in US10058587B2, “Peptide composition for cancer treatment by inhibiting TRPV6 calcium channel activity” (priority 2008, dated 2018).
Where no end group is shown, it is not given here.

Tests used:
mealworm larvae = experiment: Mealworm larva paralytic bioassay; format: in vivo; conditions: for larvae paralyzed: 20 nmole/100 mg mass; for paralysis in the mealworm larva model: molar equivalent doses (20 nanomole/100 mg larva)
From the text: To show this, the mealworm larva paralytic bioassay reported previously (U.S. Pat. No. 7,119,168) was used. Animals from a mealworm colony were arbitrarily selected and placed in groups (treatment and control). The animals were weighed to allow calculation of equivalent doses. The treatment was with either SorC13 or SorC27 dissolved in buffered insect Ringer's solution. The control was injection was an equivalent volume of insect Ringer's (NaCl; 10.40 g; KCl, 0.32 g; CaCl2, 0.48 g; NaHCO3, 0.32 g dissolved in 1 L of Millipore sterile water, pH 7.4). Peptide formulations were: SorC27 solutions, prepared at 1.0 mg/100 uL insect Ringer's (10 ug/uL, […], MW=2957); and SorC13, prepared at 0.5 mg/100 uL (5 ug/uL, […], MW=1566). The doses were 50 ug SorC27 per 100 mg of animal mass and 25 ug SorC13 per 100 mg of animal mass. Peptide solutions and control saline were injected dorsally at the fourth segment from the head, just under the integumen. Animals were gently ‘tail tweaked’ with forceps to trigger the escape reflex reaction and scored on time-to-effect, duration of effect and intensity of effect.

[1] = tested on: MDA-MB-231 (MB 231) breast cancer cell line; experiment: Induction of apoptosis (APO-ONE caspase 3/7) and cell viability (CellTiter Blue); format: cell-based, human; set-up: key to Decline in cell viability: decreased (+); or not (−)
Method: (§1) MCF-7, MDA-MB-231, MDA-MB-415, MDA-MB-468 were grown in DMEM modified with 10% (v/v) fetal bovine serum, 2 mM L-glutamine and 50 ug/mL each of penicillin and streptomycin.
(§2) The levels of apoptotic induction and cell viability were determined by multiplexing the measurements for single samples. CellTiter Blue and APO-ONE assay systems from Promega allows the determination of cell viability correlated to cell number, and induction of apoptosis. This protocol uses a fluorgenic peptide that contains a peptide recognition-sequence for caspase 3 and caspase 7, […] proteolytic enzymes of the apoptosis cascade. The CellTiter Blue reagent was added to wells in a 96-well plate containing cells under test, immediately after addition of peptide solution or vehicle. About 5000 cells were plated into the wells the day before. At the chosen time (Day 1, Day 2 etc.) the fluorescence was measured at 590 nm (emission) after excitation at 560 nm. The caspase 3/7 activity was measured (485 nm Ex/527 nm Em) in the same wells after adding 120 uL of the Apo-ONE reagent, freeze fracturing at −80° C. for 1 hr, and incubating for 1 hr at room temperature.
(§3) For this work, the concentrations of SorC13 and SorC27 used were 0 uM, 1 uM, 10 uM and 100 uM. The experiments extended over a 5 to 7 day period. All measurements were done in quadruplicate with both a blank (no cells) and control (vehicle, no peptide) used to correct the test measurements. The time-response data, and the dose-response data were plotted as means±standard error of the mean. Any statistical comparisons were done with the Student's t-test or by ANOVA analysis over the dose course. The level of statistical significance was considered to be the 95% confidence interval (i.e., p≤0.05).

[2] = tested on: MDA-MB-415 (MB 415) breast cancer cell line; experiment: as above; format: cell-based, human; set-up: key to Decline in cell viability: decreased (+); or not (−)
Method: as §1, §2, §3

[3] = Clearance route in iv mice; conditions: i.v.
[4] = Physiological effects after i.v. injection into CD1 mice (blood pressure, heart rate, neurological/behavioral); format: in vivo
Method: After in vivo i.v. injection into CD1 mice, SorC13 caused a small spike (approximately 25%) in blood pressure in the first 15 min which disappeared by 1 hour.

[5] = tested on: T 47D breast cancer cell line; experiment: Induction of apoptosis (APO-ONE caspase 3/7) and cell viability (CellTiter Blue); format: cell-based, human; set-up: key to Decline in cell viability: cell viability decreased (+); or not (−)
Method: T 47D was cultured in RPMI medium (Sigma-Aldrich) modified with 15% fetal bovine serum, 2 mM L-glutamine, 1 mM sodium pyruvate, 0.1 mg/mL bovine insulin and penicillin plus streptomycin mixture (50 ug/mL each).
as §2, §3
To benchmark the effect of both C-type peptides to the gold-standard treatment presently used against breast cancer (Paclitaxel), SorC13, SorC27 and Paclitaxel (10 uM) were compared. Both the APO-ONE assay (Promega) and the CellTiter Blue were used on the panel of breast cancer cell lines. The data were compared directly in terms of mean response and tested for significant difference.

[6] = tested on: MDA-MB-468 (MB 468) breast cancer cell line; experiment: as above; format: cell-based, human; set-up: key: cell viability decreased (+); or not (−)
Method: as §1, §2, §3

EGKLSSNDTEGGLCKEFLHPSKVDLPR [SorC27]
larvae paralyzed (mealworm larvae; time 0 min): 0/4 | larvae paralyzed (mealworm larvae; time 2 min): 0/4 | larvae paralyzed (mealworm larvae; time 30 min): 0/4 | paralysis in the mealworm larva model (mealworm larvae): no evidence of paralysis | Apoptosis Index (1 = no effect) ([1]; Day 3, SorC27 10 μM): 1.5 | Apoptosis Index (1 = no effect) ([1]; Day 3, SorC27 100 μM): 1.7 | Decline in cell viability ([1]; SorC27): + | Decline in cell viability ([2]; SorC27): + | Apoptosis Index (1 = no effect) ([2]; SorC27 10 μM): 1.3 | Apoptosis Index (1 = no effect) ([2]; SorC27 100 μM): 1.5 | Clearance route in iv mice @ 5 mg/kg [3]: Rapid via kidney. | Physiol. effects in vivo (mice) @ 5 mg/kg ([4]; 5 mg/kg): None observed over 72 hr | change in blood pressure or heart rate ([4]; i.v., 1 hour measurement period): no change in blood pressure or heart rate | neurological/behavioral changes ([4]; i.v., over 72 hours): no also neurological/behavioral changes

KEFLHPSKVDLPR [SorC13, KEFLHPSKVDLPR]
larvae paralyzed (mealworm larvae; time 0 min): 0/4 | larvae paralyzed (mealworm larvae; time 2 min): 0/4 | larvae paralyzed (mealworm larvae; time 30 min): 0/4 | paralysis in the mealworm larva model (mealworm larvae): no evidence of paralysis | Apoptosis Index (1 = no effect) ([5]; SorC13 1 uM): 2.0 | Decline in cell viability ([5]; SorC13 1 uM): + | Apoptosis Index (1 = no effect) ([5]; SorC13 10 uM): 2.8 | Decline in cell viability ([5]; SorC13 10 uM): + | induction of apoptosis compared with Paclitaxel (10 uM) ([5]; SorC13 10 uM): more effective at inducing a faster and more intense apoptotic response | Apoptosis Index (1 = no effect) ([5]; SorC13 100 uM): 4.3 | Decline in cell viability ([5]; SorC13 100 uM): + | Decline in cell viability ([6]; SorC13 1 uM): + | Decline in cell viability ([6]; SorC13 10 uM): + | Decline in cell viability ([6]; SorC13 100 uM): +
